From patent US20260092061A1, “COMPOUNDS FOR TARGETED PROTEIN DEGRADATION” (Amphista Therapeutics Limited, priority 2022, published 2026)

Biological target: T1, BRD9 (Homo sapiens, UniProt Q9H8M2)
T1 sequence (Q9H8M2 1-597): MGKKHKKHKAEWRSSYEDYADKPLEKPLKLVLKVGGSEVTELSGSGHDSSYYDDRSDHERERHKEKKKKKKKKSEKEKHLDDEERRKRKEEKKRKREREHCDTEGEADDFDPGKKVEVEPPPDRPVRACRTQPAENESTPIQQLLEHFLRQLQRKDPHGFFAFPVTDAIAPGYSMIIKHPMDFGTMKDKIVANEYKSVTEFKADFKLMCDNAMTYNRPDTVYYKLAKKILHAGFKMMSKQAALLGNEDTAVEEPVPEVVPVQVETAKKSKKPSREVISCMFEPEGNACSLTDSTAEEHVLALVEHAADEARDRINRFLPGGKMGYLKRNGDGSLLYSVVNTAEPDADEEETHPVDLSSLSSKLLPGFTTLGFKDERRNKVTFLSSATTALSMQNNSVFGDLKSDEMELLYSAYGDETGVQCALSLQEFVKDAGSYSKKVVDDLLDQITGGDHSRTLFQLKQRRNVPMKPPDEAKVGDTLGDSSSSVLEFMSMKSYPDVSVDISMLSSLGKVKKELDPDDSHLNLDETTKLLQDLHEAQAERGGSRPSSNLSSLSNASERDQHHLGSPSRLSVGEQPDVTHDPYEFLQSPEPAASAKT
Assay: Degradation of BRD9 (IF), immunofluorescence in MV4-11 cells, 24 hours (Assay Protocol 2)
Assay type: cell-based
Set-up: A suspension of MV4-11 cells (ATCC CRL-9591) was prepared; host or cells: MV4-11
Settings: BRD9 degradation; for DC50: Assay protocol 2, read-out: DC50; for Dmax: MV4-11, Assay protocol 2, read-out: Dmax
Summary of the method: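 MV4-11 cells treated with compound 24 h at 37° C., then fixed, permeabilised and immunostained for BRD9 (anti-BRD9 E4Q3F, Alexa 647 secondary, Hoechst counterstain). High-content imaging quantified nuclear BRD9 signal; % BRD9 remaining normalised to DMSO and 100 nM CFT-8634 controls.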

COc1cc(-c2cn(C)c(=O)c(C)c2C)cc(OC)c1CN1CCN(Cc2cccc3c2CCN(C(=O)/C(C#N)=C/C(C)(C)C)[C@@H]3C)[C@@H](C)C1 (single isomer, unassigned) [Compound B198]
DC50: 0.00125 to 0.01 µM
Dmax: > 75%

COc1cc(-c2cn(C)c(=O)c(C)c2C)cc(OC)c1CN1CCN(Cc2ccc3c(c2)[C@H](C)N(C(=O)/C(C#N)=C/C(C)(C)CF)CC3)C2(CC2)C1 (single isomer, unassigned) [Compound B201, (E/Z)-2-(7-((7-(2,6-dimethoxy-4-(1,4,5-trimethyl-6-oxo-1,6dihydropyridin-3-yl)benzyl)-4,7-diazaspiro[2.5]octan-4-yl)methyl)-1-methyl-1,2,3,4-tetrahydroisoquinoline-2-carbonyl)-5-fluoro-4,4-dimethylpent-2-enenitrile]
DC50: 0.025 to 1 µM
Dmax: 40 to 70%

COc1cc(-c2cn(C)c(=O)c(C)c2C)cc(OC)c1CN1CCN(Cc2ccc3c(c2)[C@@H](C)N(C(=O)/C(C#N)=C/C(C)(C)CF)CC3)C2(CC2)C1 (single isomer, unassigned) [Compound B202, (E/Z)-2-(7-((7-(2,6-dimethoxy-4-(1,4,5-trimethyl-6-oxo-1,6-dihydropyridin-3-yl)benzyl)-4,7-diazaspiro[2.5]octan-4-yl)methyl)-1-methyl-1,2,3,4-tetrahydroisoquinoline-2-carbonyl)-5-fluoro-4,4-dimethylpent-2-enenitrile]
DC50: < 0.00125 µM
Dmax: > 75%

COc1cc(-c2cn(C)c(=O)c(C)c2C)cc(OC)c1CN1CCN(Cc2ccc3c(c2)C(C)N(C(=O)/C(C#N)=C/C(C)(C)CCl)CC3)C2(CC2)C1 (single isomer, unassigned) [Compound B203, (E/Z)-5-chloro-2-(7-((7-(2,6-dimethoxy-4-(1,4,5-trimethyl-6-oxo-1,6-dihydropyridin-3-yl)benzyl)-4,7-diazaspiro[2.5]octan-4-yl)methyl)-1-methyl-1,2,3,4-tetrahydroisoquinoline-2-carbonyl)-4,4-dimethylpent-2-enenitrile]
DC50: 0.00125 to 0.01 µM
Dmax: > 75%

COc1cc(-c2cn(C)c(=O)c(C)c2C)cc(OC)c1CN1CCN(Cc2ccc3c(c2)[C@H](C)N(C(=O)/C(C#N)=C/C(C)(C)C)CC3)[C@H](C)C1 (single isomer, unassigned) [Compound C3]
DC50: 0.025 to 1 µM
Dmax: 40 to 70%

COc1cc(-c2cn(C)c(=O)c(C)c2C)cc(OC)c1CN1CCN(Cc2cccc3c2CCN(C(=O)/C(C#N)=C/C(C)(C)C)[C@H]3C)CC12CC2 (single isomer, unassigned) [Compound C4, (E/Z)-2-(5-((4-(2,6-dimethoxy-4-(1,4,5-trimethyl-6-oxo-1,6-dihydropyridin-3-yl)benzyl)-4,7-diazaspiro[2.5]octan-7-yl)methyl)-1-methyl-1,2,3,4-tetrahydroisoquinoline-2-carbonyl)-4,4-dimethylpent-2-enenitrile]
DC50: 0.00125 to 0.01 µM
Dmax: > 75%

COc1cc(-c2cn(C)c(=O)c(C)c2C)cc(F)c1CN1CCN(Cc2ccc3c(c2)[C@@H](C)N(C(=O)/C(C#N)=C/C(C)(C)C)CC3)C2(CC2)C1 (single isomer, unassigned) [Compound C5, (E/Z)-2-(7-((7-(2-fluoro-6-mehtoxy-4-(1,4,5-trimethyl-6-oxo-1,6-dihydropyridin-3-yl)benzyl)-4,7-diazaspiro[2.5]octan-4-yl)methyl)-1-methyl-1,2,3,4-tetrahydroisoquinoline-2-carbonyl)-4,4-dimethylpent-2-enenitrile]
DC50: 0.01 to 0.025 µM
Dmax: > 75%

COc1cc(-c2cn(C)c(=O)c3[nH]ncc23)cc(OC)c1CN1CCN(Cc2ccc3c(c2)[C@@H](C)N(C(=O)/C(C#N)=C/C(C)(C)C)CC3)C2(CC2)C1 (single isomer, unassigned) [Compound C6, (E/Z)-2-(7-((7-(2,6-dimethoxy-4-(6-methyl-7-oxo-6,7-dihydro-1H-pyrazolo[3,4-c]pyridin-4-yl)benzyl)-4,7-diazaspiro[2.5]octan-4-yl)methyl)-1-methyl-1,2,3,4-tetrahydroisoquinoline-2-carbonyl)-4,4-dimethylpent-2-enenitrile]
DC50: < 0.00125 µM
Dmax: > 75%

COc1cc(-c2cn(C)c(=O)c(C)c2C)cc(OC)c1CN1CCCN(Cc2cccc3c2CCN(C(=O)/C(C#N)=C/C(C)(C)CF)[C@@H]3C)CC1 (single isomer, unassigned) [Compound C19]
DC50: 0.00125 to 0.01 µM
Dmax: > 75%

COc1cc(-c2cn(C)c(=O)c(C)c2C)cc(OC)c1CN1CCN(Cc2cccc3c2CCN(C(=O)/C(C#N)=C/C(C)(C)F)[C@@H]3C)C2(CC2)C1 (single isomer, unassigned) [Compound C20, (E/Z)-2-(5-((7-(2,6-dimethoxy-4-(1,4,5-trimethyl-6-oxo-1,6-dihydropyridin-3-yl)benzyl)-4,7-diazaspiro[2.5]octan-4-yl)methyl)-1-methyl-1,2,3,4-tetrahydroisoquinoline-2-carbonyl)-4-fluoro-4-methylpent-2-enenitrile]
DC50: < 0.00125 µM
Dmax: > 75%

COc1cc(-c2cn(C)c(=O)c(C)c2C)cc(OC)c1CN1CCN(Cc2cccc3c2CCN(C(=O)/C(C#N)=C\C(C)(C)CF)C3C(C)C)[C@@H](C)C1 (single isomer, unassigned) [Compound C26]
DC50: 0.01 to 0.025 µM
Dmax: > 75%

COc1cc(-c2cn(C)c(=O)c(C)c2C)ccc1OC1CCN(Cc2cccc3c2CCN(C(=O)/C(C#N)=C/C(C)(C)C)[C@H]3C)CC1 (single isomer, unassigned) [Compound C31, (E/Z)-2-(5-((4-(2-methoxy-4-(1,4,5-trimethyl-6-oxo-1,6-dihydropyridin-3-yl)phenoxy)piperidin-1-yl)methyl)-1-methyl-1,2,3,4-tetrahydroisoquinoline-2-carbonyl)-4,4-dimethylpent-2-enenitrile]
DC50: 0.00125 to 0.01 µM
Dmax: > 75%

COc1cc(-c2cn(C)c(=O)c(C)c2C)cc(OC)c1CN1CCN(Cc2ccc3c(c2)[C@H](C)N(C(=O)/C(C#N)=C/C(C)(C)CF)CC3)CC12CC2 (single isomer, unassigned) [Compound C33]
DC50: 0.00125 to 0.01 µM
Dmax: > 75%

COc1cc(-c2cn(C)c(=O)c(C)c2C)cc(OC)c1CN1CCN(Cc2ccc3c(c2)[C@@H](C)N(C(=O)/C(C#N)=C/C(C)(C)CF)CC3)CC12CC2 (single isomer, unassigned) [Compound C34]
DC50: 0.025 to 1 µM
Dmax: 40 to 70%

COc1cc(-c2cn(C)c(=O)c(C)c2C)cc(OC)c1CN1CCN(Cc2ccc3c(c2)[C@@H](C)N(C(=O)/C(C#N)=C/C(C)(C)C)CC3)C2(CC2)C1 (single isomer, unassigned) [Compound C35, (E/Z)-2-(7-((7-(2,6-dimethoxy-4-(1,4,5-trimethyl-6-oxo-1,6-dihydropyridin-3-yl)benzyl)-4,7-diazaspiro[2.5]octan-4-yl)methyl)-1-methyl-1,2,3,4-tetrahydroisoquinoline-2-carbonyl)-4,4-dimethylpent-2-enenitrile]
DC50: < 0.00125 µM
Dmax: > 75%

COc1cc(-c2cn(C)c(=O)c(C)c2C)cc(OC)c1CN1CCN(Cc2ccc3c(c2)[C@H](C)N(C(=O)/C(C#N)=C/C(C)(C)C)CC3)C2(CC2)C1 (single isomer, unassigned) [Compound C36, (E/Z)-2-(7-((7-(2,6-dimethoxy-4-(1,4,5-trimethyl-6-oxo-1,6-dihydropyridin-3-yl)benzyl)-4,7-diazaspiro[2.5]octan-4-yl)methyl)-1-methyl-1,2,3,4-tetrahydroisoquinoline-2-carbonyl)-4,4-dimethylpent-2-enenitrile]
DC50: 0.01 to 0.025 µM
Dmax: 40 to 70%

COc1cc(-c2cn(C)c(=O)c(C)c2C)cc(OC)c1CN1CCN(Cc2ccc3c(c2)[C@@H](C)N(C(=O)/C(C#N)=C/C2(OC)CC2)CC3)C2(CC2)C1 (single isomer, unassigned) [Compound C37, (E/Z)-2-(7-((7-(2,6-dimethoxy-4-(1,4,5-trimethyl-6-oxo-1,6-dihydropyridin-3-yl)benzyl)-4,7-diazaspiro[2.5]octan-4-yl)methyl)-1-methyl-1,2,3,4-tetrahydroisoquinoline-2-carbonyl)-3-(1-methoxycyclopropyl)acrylonitrile]
DC50: < 0.00125 µM
Dmax: > 75%

COc1cc(-c2cn(C)c(=O)c(C)c2C)cc(OC)c1CN1CCN(Cc2ccc3c(c2)C(C)N(C(=O)/C(C#N)=C/C2(C)CCC(F)(F)CC2)CC3)C2(CC2)C1 (single isomer, unassigned) [Compound C38, (E/Z)-3-(4,4-difluoro-1-methylcyclohexyl)-2-(7-((7-(2,6-dimethoxy-4-(1,4,5-trimethyl-6-oxo-1,6-dihydropyridin-3-yl)benzyl)-4,7-diazaspiro[2.5]octan-4-yl)methyl)-1-methyl-1,2,3,4-tetrahydroisoquinoline-2-carbonyl)acrylonitrile]
DC50: 0.00125 to 0.01 µM
Dmax: 70 to 75%
